Square brackets hold non-standard residues; d marks the D form. Peptide text beside a SMILES is read from it.
Assays:
[1] = system: lungs of healthy CD1 mice; test: Lung gene expression (RNA-seq) after intratracheal instillation; assay type: in vivo, mouse; conditions: i.t. 0.1 mg/kg (20 μM), 24 h, vs PBS-treated animals
Procedure: All animal experiments were carried out based on a protocol (n. 20087639) approved by the Institutional Animal Care and Use Committee of the University of Pittsburgh according to the National Institutes of Health (NIH) guide for the care and use of laboratory animals. Seven-week-old female wild-type CD1 mice were anesthetized by isoflurane inhalation and instilled intratracheally with 50 µL of peptide solution (0.1 mg/kg, i.e., 20 μM) or PVA-PLGA NP suspension (either bare NPs or NPs loaded with each peptide at 0.1 mg/kg), in PBS. Control mice were given 50 µL of PBS without peptide. After 24 h, mice were euthanized for lung tissue isolation to extract RNA for differential expression analysis (sequencing work was performed by Novogene US Marketing).

[2] = Stability in bronchoalveolar lavage fluid (BAL); assay type: in vitro ADME, mouse
Procedure: Bronchoalveolar lavage fluid (BAL) was collected from male and female C57BL/6 mice (4–5 months old) according to the procedure described in [31, 32]. Mice were euthanized by means of CO2 narcosis; a small incision at the level of the neck was made and a blunt needle connected to a syringe was inserted into the trachea. Then, lungs were washed with 1 mL of sterile PBS. BAL samples from each mouse were pooled, centrifuged at 1000 rpm (corresponding to […]) for 5 min, and stored at −80 °C. The supernatant was used for stability tests.
Peptides were dissolved in 400 µL of PBS at a concentration of 300 µM, and added to an equal volume of BAL at a final concentration of 150 µM. At different time points, 150 μL aliquots were withdrawn and added to 500 µL of acetonitrile, and then centrifuged. The supernatants were diluted with 160 μL of 0.1% trifluoroacetic acid (TFA)—water and analyzed by RP-HPLC and mass spectrometry. Liquid chromatography was performed on a Phenomenex Jupiter C18 analytical column (300 Å, 5 μm, 250 × 4.6 mm) in a 30 min gradient, using 0.1% TFA in water as solvent A and acetonitrile as solvent B. Mass spectrometry analysis of diluted samples was performed with a Bruker Daltonic-ultraflex-matrix-assisted laser desorption ionization tandem time-of-flight (MALDI-TOF/TOF) mass spectrometer.

[3] = cited from earlier work
Text: This last feature is not shown by any traditional antibiotic and is expected to accelerate the healing of a damaged lung epithelium, especially in CF lungs, where wound-healing processes are highly compromised. Interestin ...

CD1 mice [4] = test: Maximum tolerated dosage (MTD) and therapeutic index; assay type: in vivo, mouse
Procedure: (§1) Five-week-old female wild-type CD1 mice were anesthetized by isoflurane inhalation and instilled intratracheally with 1.5 mg/kg (corresponding to 300 μM) of Esc(1-21)-1c in the free or encapsulated form in 50 μL of PBS. Mice instilled with 50 μL of PBS or bare PVA-PLGA NPs were included for control. After 1 day and 14 days, mice were euthanized for tissue isolation and examined for histopathology. Tissues were fixed in situ with 4% paraformaldehyde for 10 min with open chest cavity. They were then embedded in paraffin, and 5 µm-thick tissue slices were prepared by staining in hematoxylin and eosin and analyzed for pathological severity. In parallel, another group of seven animals was anesthetized by isoflurane inhalation and instilled intratracheally with escalating concentrations up to 7 mg/kg Esc(1-21)-1c in 50 μL of PBS and monitored for survival to determine the MTDs.

CD1 mice [5] = test: Mouse toxicity: histopathology after intratracheal instillation; assay type: in vivo
Procedure: as §1, with “After 1 day and 14 days, mice were euthanized for tissue isolation and examined for histopathology.” left out

In the case of `CC[C@H](C)[C@H](NC(=O)CN)C(=O)N[C@@H](Cc1ccccc1)C(=O)N[C@@H](CO)C(=O)N[C@@H](CCCCN)C(=O)N[C@@H](CC(C)C)C(=O)N[C@@H](C)C(=O)NCC(=O)N[C@@H](CCCCN)C(=O)N[C@@H](CCCCN)C(=O)N[C@H](C(=O)N[C@@H](CCCCN)C(=O)N[C@@H](CC(N)=O)C(=O)N[C@H](CC(C)C)C(=O)N[C@@H](CC(C)C)C(=O)N[C@H](C(=O)N[C@H](CO)C(=O)NCC(=O)N[C@@H](CC(C)C)C(=O)N[C@@H](CCCCN)C(=O)NCC(N)=O)[C@@H](C)CC)[C@@H](C)CC` [Esc(1-21)-1c] (H-GIFSKLAGKKIKN[dL]LI[dS]GLKG-NH2), the “Log2FC, gene Chil1 (up)” value [1] is reported as 34.248, the “Log2FC, gene Dynlt1f (up)” value [1] is reported as 19.702 and the “Log2FC, gene Eif4a-ps4 (up)” value [1] is reported as 17.867. For the same compound, the “Log2FC, gene Rpl26 (up)” value [1] was 20.049, the “Log2FC, gene Snhg11 (down)” value [1] was −1.949 and the “time in BAL at which the peak of the full-length peptide (2185 Da) is still detected” value ([2]; mouse (C57BL/6) BAL supernatant mixed 1:1 with peptide in PBS, 300 μM (method: final 150 µM), time points 6 and 24 h, acetonitrile work-up, RP-HPLC C18 and MALDI-TOF/TOF) was at least 24 h. The “time of incubation with BAL after which the full-length peptide (2185 Da) is detectable” value ([2]; mouse BAL, high peptide concentration (as for 7 mg/kg), mass spectra (Figure S5)) was at least 48 h, the “resistance to enzymatic degradation compared with Esc(1-21)” value [3] was “more resistant to enzymatic degradation” and the range of motion (CD1 mice [4]; 1 h and 24 h after i.t. instillation at 7 mg/kg) was “maintained the same range of motion”. For the same compound, the “maximum tolerated dosage (highest dosage tested, well-tolerated)” value (CD1 mice [4]; i.t. instillation, increasing concentrations from 1.5 to 7 mg/kg in 50 μL PBS, survival monitored for 14 days) was at least 7 mg/kg, the survival (CD1 mice [4]; i.t. up to 7 mg/kg, monitored for 14 days) was “remained viable for the entire duration of the experiment” and the “lung histology: inflammatory response or lung tissue damage” value (CD1 mice [5]; CD1 mice, i.t. 1.5 mg/kg (~300 µM) peptide free or encapsulated, or corresponding amount of bare NPs, 1 day and 14 days, H&E) was “did not detect any inflammatory response”. For the same compound, the “histology of other organs (liver and kidneys)” value (CD1 mice [5]; CD1 mice, i.t. 1.5 mg/kg free or encapsulated, 1 day and 14 days, vs control) was “no visible tissue injury, necrosis, or alteration in cell density”, the “histology of liver, spleen and kidneys” value (CD1 mice [5]; mice, i.t. 7 mg/kg, 48 h, vs control) was “no alteration in the tissue structure” and the “lung histopathology: recruitment of inflammatory cells” value (CD1 mice [5]; mice, i.t. 7 mg/kg, within 48 h, vs PBS-treated mice) was “did not reveal significant recruitment of inflammatory cells”.

— paper PMC9697339, “Pulmonary Safety Profile of Esc Peptides and Esc-Peptide-Loaded Poly(lactide-co-glycolide) Nanoparticles: A Promising Therapeutic Approach for Local Treatment of Lung Infectious Diseases” (Pharmaceutics, 2022)
